Where a name gives a salt, the structure may show the parent alone. Read-outs that look alike come from different tables or passages of the source.
How the values were obtained:
[1] = Pharmacokinetics and bioavailability, single intravenous or oral doses, partial Latin square crossover; type: in vivo, male cynomolgus monkeys; conditions: for bioavailability: male, cynomolgus monkey, plasma, po; for Absolute Bioavailability of the BH4 Analog: dihydrochloride; for Val-BH4/(BH4 + BH2 + B), analog remaining in systemic circulation / Val-BH4/BH4, analog remaining in systemic circulation: determined from AUC0-t; for Val-BH4/total biopterin, analog remaining in systemic circulation: from AUC0-t, total biopterin adjusted to BH4 analog
Experimental: This study was to determine the pharmacokinetics and relative bioavailability of BH4 when given as parent BH4 or an analog of BH4 to male cynomolgus monkeys as single intravenous or oral doses in a partial Latin square crossover design.
Six, male, non-naïve cynomolgus monkeys were fasted overnight prior to dosing through approximately 4 hours postdose. Individual doses were calculated based on body weights recorded on each day of dose administration. Five experimental groups of monkeys were evaluated using a partial Latin square crossover design: Group 1-2 mg/kg BH4 by IV; Group 2-40 mg/kg BH4 by oral gavage; Group 3-2 mg/kg BH4 analog by IV; Group 4-5 mg/kg BH4 analog by oral gavage; Group 5-20 mg/kg BH4 analog by oral gavage. The doses of BH4 analog were prepared as mg/kg equivalents of BH4 (calculated using BH4 and BH4 analog 2HCl molecular weights). The partial Latin square crossover design was used to minimize dose sequence effect on interanimal variability for statistical purposes. The monkeys received their respective dose of BH4 intravenously (2 mL/kg, dissolved in 100 μM ascorbic acid and 5% mannitol in sterile water for injection, SWFI), Example 5 intravenously (2 mL/kg, dissolved in 100 μM ascorbic acid and 5% mannitol in citrate buffer, pH 3) or BH4 or Example 5 by oral gavage (4 mL/kg, dissolved in 100 μM ascorbic acid in SWFI). Prior to use, all intravenous dose formulations were filtered into the final dosing container using a 0.22-micron syringe filter (Millex GS or GV; Millipore).
For intravenous administration, blood (approximately 1 mL) was collected from each animal predose and at 0.083, 0.25, 0.5, 1, 2, 3, 4, 6, 8, 12, 18, and 24 hours postdose. For oral administration, blood (approximately 1 mL) was collected from each animal predose and at 0.25, 0.5, 1, 2, 3, 4, 6, 8, 12, 18, and 24 hours postdose. Blood was collected into tubes containing K2-EDTA anticoagulant, which was maintained in chilled condition, and centrifuged to obtain plasma. Centrifugation began within 30 minutes of collection. Three, 100-μL aliquots of each plasma sample were promptly transferred following centrifugation into individual tubes containing 0.1% (w/v) dithioerythritol (DTE) for storage. Once the plasma aliquot was added, each tube was vortexed briefly to mix then immediately placed on dry ice.

[2] = HPLC with ECD and fluorescence detection of biopterins in plasma of dosed monkeys; type: in vivo, cynomolgus monkeys; conditions: plasma 2 hours post-administration, 2% MeOH mobile phase, FIG. 16
Experimental: An HPLC method using Electrochemical Detection (ECD) and Fluorescence (FL) detection is advantageous as it allows for the measurement of each of the discrete biopterin compounds (BH4, BH2 and B) as well as analog, such as prodrug, forms (e.g., Val-BH4, Val-BH2, and Val-B).
The concentrations of different biopterins (BH4, BH2 and B) and Val-biopterins are determined by initially using reverse phase HPLC for separation, followed by ECD and FL detection. BH4 and Val-BH4 are measured using ECD in which BH4 and Val-BH4 are oxidized by electrode 1 to quinonoid dihydrobiopterin forms (qBH2 or Val-qBH2, respectively), a short-lived dihydrobiopterin intermediate, and then reduced back to BH4 or Val-BH4 at electrode 2. The detector then uses the current generated by this reduction reaction to determine the concentration of BH4 or Val-BH4, respectively. BH2, Val-BH2, B and Val-B are measured by fluorescence detection. […] This is desirable because BH2 is not fluorescently active or easily measured and must be converted to biopterin, which is easily measured using fluorescence. […] In one embodiment, the biopterin analogs, such as valine biopterin derivatives, are measured using a 10% MeOH-containing mobile phase whereas the biopterins are measured using a 2% MeOH-containing mobile phase.
The compound of Example 5 can be detected in buffer and by extraction using this assay. […]

CC(C)[C@H](N)C(=O)O[C@@H](C)[C@H](O)[C@H]1CNc2nc(N)[nH]c(=O)c2N1 [Example 5, 2-Amino-3-methyl-butyric acid 2-(2-amino-4-oxo-3,4,5,6,7,8-hexahydro-pteridin-6-yl)-2-hydroxy-1-methyl-ethyl ester dihydrochloride]
bioavailability ([1]; 5 mg/kg, oral 5 mg/kg (BH4 equivalents), n=6, read-out: Absolute Bioavailability of the BH4 Analog): 36% | bioavailability ([1]; 20 mg/kg, oral 20 mg/kg (BH4 equivalents), n=6, read-out: Absolute Bioavailability of the BH4 Analog): 33% | bioavailability ([1]; 20 mg/kg, oral 5 and 20 mg/kg, read-out: absolute bioavailability of Val-BH4 present in plasma): 33 to 36% | Absolute Bioavailability of the BH4 Analog ([1]; oral 5 mg/kg (BH4 equivalents), n=6, 5 mg/kg): 36.2 (26.3) % | absorption and distribution of the analog in plasma ([1]; oral 5 mg/kg, FIG. 10): absorbed quickly and was rapidly distributed by 4 hr | Val-BH4/(BH4 + BH2 + B), analog remaining in systemic circulation ([1]; oral 5 mg/kg, n=6): 36.4 (16.0) % | Val-BH4/BH4, analog remaining in systemic circulation ([1]; oral 5 mg/kg, n=6): 56.3 (25.2) % | Val-BH4/total biopterin, analog remaining in systemic circulation ([1]; oral 5 mg/kg, n=6): 23.5 (5.6) % | Absolute Bioavailability of the BH4 Analog ([1]; oral 20 mg/kg (BH4 equivalents), n=6, 20 mg/kg): 33.2 (29.2) % | Val-BH4/(BH4 + BH2 + B), analog remaining in systemic circulation ([1]; oral 20 mg/kg, n=6): 51.6 (11.6) % | Val-BH4/BH4, analog remaining in systemic circulation ([1]; oral 20 mg/kg, n=6): 81.0 (18.1) % | Val-BH4/total biopterin, analog remaining in systemic circulation ([1]; oral 20 mg/kg, n=6): 40.7 (11.1) % | percent of Val-BH4 remaining in systemic circulation ([1]; oral 5 and 20 mg/kg, based on total biopterin adjusted to Val-BH4): greater than 23.5±5.6% | height of the BH4 peak compared with monkeys administered BH4 [2]: several fold higher

Reference: patent publication US7601717B2, “Pterin analogs” (BioMarin Pharmaceutical Inc., priority 2008, dated 2009)
